Experimental data published in ChEMBL document CHEMBL1201862, “PubChem BioAssay data set” (2004).
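Dose response: 5 concentrations. Exposure: 48 h. Format: 96-well plates. Endpoint: linear interpolation; highest concentration if not reached. Here, GI50 denotes the concentration required for 50% inhibition of growth.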 Calls of active or inactive are those of the source. Rule as the data show it: active = GI50 up to about 1.1 µM and inactive = higher.

Experiments:
Experiment in all cases: DTP human tumour cell line panel, 48 h
[1] = test system: A549
[2] = test system: HOP-62
[3] = test system: HOP-92
[4] = test system: SK-MEL-2
[5] = test system: T47D
[6] = test system: SK-MEL-5
[7] = test system: DU-145
[8] = test system: RXF 393
[9] = test system: EKVX
[10] = test system: UACC-257
[11] = test system: SF-295
[12] = test system: ACHN
[13] = test system: HT-29
[14] = test system: NCI-H460
[15] = test system: LOX IMVI
[16] = test system: OVCAR-3
[17] = test system: NCI/ADR-RES
[18] = test system: U-251
[19] = test system: KM12
[20] = test system: SN12C

Measured: GI50

C/C=C/OC1C(C2COC(C)(C)O2)OC2OC(C)(C)OC21 (centres undefined)
inactive: [1] > 100 µM | [2] > 100 µM | [3] > 100 µM | [4] > 100 µM | [5] > 100 µM | [6] > 100 µM | [7] > 100 µM | [8] > 100 µM | [9] > 100 µM | [10] > 100 µM | [11] > 100 µM | [12] > 100 µM | [13] > 100 µM | [14] > 100 µM | [15] > 100 µM | [16] > 100 µM | [17] > 100 µM | [18] > 100 µM

O=C(O)CNC(=O)c1ccc2cc(C(=O)N3CC(CCl)c4ccc([N+](=O)[O-])cc43)[nH]c2c1 (centres undefined)
inactive: [19] > 100 µM | [1] > 100 µM | [3] > 100 µM | [4] > 100 µM | [5] > 100 µM | [6] > 100 µM | [7] > 100 µM | [20] > 100 µM | [8] > 100 µM | [9] > 100 µM | [10] > 100 µM | [11] > 100 µM | [12] > 100 µM | [13] > 100 µM | [14] > 100 µM | [15] > 100 µM | [16] > 100 µM | [17] > 100 µM | [18] > 100 µM

COc1cc(C)c2c(c1C=O)Oc1c(c(C)c(O)c3c1C(O)OC3=O)OC2=O (centres undefined) [STICTIC ACID]
inactive: [19] 19.6 µM | [1] > 100 µM | [2] 70.1 µM | [3] 99.3 µM | [4] > 10 µM | [5] 17.6 µM | [6] 20.2 µM | [7] 87.5 µM | [20] > 100 µM | [8] 32.5 µM | [9] 32.6 µM | [10] 47.9 µM | [11] 49.2 µM | [12] 22 µM | [13] 41.8 µM | [15] 28.4 µM | [16] 32.5 µM | [17] 37.2 µM | [18] 33.5 µM

Nc1ccc(-c2nc3ccccc3s2)cc1C(F)(F)F
inactive: [19] 16.1 µM | [1] 17.8 µM | [2] 15.4 µM | [3] 16.3 µM | [4] 17.2 µM | [5] 5.31 µM | [6] 15.5 µM | [7] 15.8 µM | [20] 13.6 µM | [8] 9.08 µM | [9] 11 µM | [10] 15.6 µM | [11] 17.4 µM | [12] 15.2 µM | [13] 15.5 µM | [15] 16.4 µM | [16] 16.4 µM | [17] 17.7 µM | [18] 15 µM

O=C1Nc2ccccc2/C1=N/Nc1ccc([N+](=O)[O-])cc1
inactive: [19] 20.2 µM | [1] 24.4 µM | [2] 14.6 µM | [4] 58.2 µM | [5] 7.62 µM | [6] 35.6 µM | [7] 12.9 µM | [20] 22.6 µM | [8] 15 µM | [9] 8.93 µM | [10] 29.5 µM | [11] 16.9 µM | [12] 13.5 µM | [13] 61.8 µM | [14] 30.1 µM | [15] 21.5 µM | [16] 13.6 µM | [17] 15.4 µM | [18] 30.3 µM

O=C1CCc2ccccc2O1 [DIHYDROCOUMARIN]
inactive: [19] > 100 µM | [2] > 100 µM | [3] > 100 µM | [4] > 100 µM | [5] > 100 µM | [7] > 100 µM | [20] > 100 µM | [8] > 100 µM | [9] > 100 µM | [10] > 100 µM | [11] > 100 µM | [12] > 100 µM | [13] > 100 µM | [14] > 100 µM | [15] > 100 µM | [16] > 100 µM | [17] > 100 µM | [18] > 100 µM

CCCCc1ccc(Nc2nc(Cl)c3[nH]cnc3n2)cc1
inactive: [19] 17.1 µM | [1] 33.5 µM | [2] 14 µM | [3] 11.6 µM | [4] 14.6 µM | [5] 11.2 µM | [6] 16.7 µM | [7] 17.9 µM | [20] 22.4 µM | [8] 17.1 µM | [9] 33.8 µM | [10] 16.2 µM | [11] 17.7 µM | [12] 20.8 µM | [13] 19.9 µM | [15] 13.7 µM | [16] 14.8 µM | [17] 19.3 µM

NC(=O)C(Nc1c(Cl)cccc1Cl)c1cc2cc(Br)ccc2nc1Cl (centres undefined)
inactive: [19] 38 µM | [1] 63.1 µM | [2] 65.8 µM | [3] 37.7 µM | [4] 29.6 µM | [5] 44.4 µM | [6] 37.5 µM | [7] > 100 µM | [20] 63.1 µM | [8] 41.7 µM | [9] 25.8 µM | [10] 83.2 µM | [11] 58.9 µM | [12] 80.9 µM | [13] 52.8 µM | [14] 90.8 µM | [15] 59.6 µM | [16] 52.8 µM | [17] 42.5 µM

O=C1CSC(c2ccccc2O)N1c1ccc2c(c1)Oc1c(Cl)c3c(c(Cl)c1=N2)Oc1cc(N2C(=O)CSC2c2ccccc2O)ccc1N=3 (centres undefined)
inactive: [19] 34.3 µM | [2] 28.6 µM | [3] 17.1 µM | [4] 47.6 µM | [5] 37.4 µM | [6] > 100 µM | [7] 42.4 µM | [8] 17.1 µM | [9] > 100 µM | [10] 81.1 µM | [11] 42 µM | [12] 24.5 µM | [13] 54.7 µM | [14] 43 µM | [15] 42.1 µM | [16] 33.3 µM | [17] > 100 µM | [18] 24.9 µM

C1COC(NC(C2CC2)C2CC2)=N1 [RILMENIDINE]
inactive: [19] > 100 µM | [1] > 100 µM | [3] > 100 µM | [4] > 100 µM | [5] > 100 µM | [6] > 100 µM | [7] > 100 µM | [8] > 100 µM | [9] > 100 µM | [10] > 100 µM | [11] > 100 µM | [12] > 100 µM | [13] > 100 µM | [14] > 100 µM | [15] > 100 µM | [16] > 100 µM | [17] > 100 µM | [18] > 100 µM

Oc1c(Br)cc(CN(Cc2cc(Br)c(O)c(Br)c2)C2CCCCC2)cc1Br
inactive: [19] > 100 µM | [1] > 100 µM | [2] > 100 µM | [3] > 100 µM | [4] > 100 µM | [5] > 100 µM | [6] > 100 µM | [7] > 100 µM | [20] > 100 µM | [8] > 100 µM | [9] > 100 µM | [10] > 100 µM | [11] > 100 µM | [12] > 100 µM | [13] > 100 µM | [15] > 100 µM | [16] > 100 µM | [17] > 100 µM | [18] > 100 µM
